Experiments:
[1] = test system: LFA-1/D1-D2-Fc (ICAM-1) interaction; assay: Steady-state FRET based competitive screening assay for inhibition of the LFA-1/D1-D2-Fc interaction; type: binding, human; details: for inhibition efficiency: 100 nM Alexa Fluor 488-LFA-1 + 100 nM Alexa Fluor 555-D1-D2-Fc, PBS, pH 7.4, 1 mM EGTA, 2 mM Mg^2+, 30 min, dark, calculated from FRET efficiency, Eq. (1); for FRET efficiency: mean ± rms, control without inhibitor 53.51 ± 0.10%, A/D = 2.12, excitation 470 nm, Eq. (3); for rank of inhibition efficiency among the three LFA-1 derived peptides: 0.02, 0.2, 2 and 20 µM
Protocol: But with increasing concentration of the lovastatin, the FRET efficiency decreased to 5.3% for 200 µM of lovastatin. The inhibition efficiency (%) was calculated for each concentration of lovastatin using the relation,
[drawing 1] (1) where Fcontrol is the FRET efficiency of the Alexa Fluor 488-LFA-1 and Alexa Fluor 555-D1-D2-Fc alone and Fx is that of the FRET mixture when incubated with inhibitors. The inhibition efficiency of lovastatin was calculated to be 69.48±0.77%, 73.84±0.56%, 84.98±0.10%, and 90.03±0.06% for 0.2, 2, 20, and 200 µM respectively [Fig. 7(a)].
To characterize and compare the inhibitory activity of the selected peptides, CD11a237–261, CD11a441–465, and CD11a456–465, the FRET mixture was incubated with several concentrations (0.02, 0.2, 2, and 20 µM) of the peptides (following the procedure described in the “Materials and Methods” section) and the FRET efficiency (Tables S3, S4, S5) and the inhibition efficiency [Fig. 7(b)] were calculated for each case. The inhibition efficiency for CD11a237–261 at 0.02, 0.2, 2, and 20 µM are 40.81±0.31%, 47.05±0.56%, 53.16±0.70%, 65.13±0.81%, respectively; the corresponding values for CD11a441–465, at the same concentrations, are 20.89±0.72%, 37.08±0.29%, 46.93±0.89%, 62.01±0.15%, respectively; and for CD11a456–465, the corresponding values are 12.17±0.91%, 20.26±0.69%, 36.46±0.42%, 51.41±0.33%. From these values, we note that the difference in inhibition efficiency of these three peptides is much more significant at low peptide concentration (on the order of 0.02 to 0.2 µM), the cause of which requires further investigation. Nevertheless, in all cases, the inhibition efficiency of CD11a237–261 is highest and CD11a456–465 the lowest, which are in good agreement with those reported in the literature.
The FRET efficiency can be adjusted by changing the fluorophore to protein ratio; the optimal acceptor to donor fluorophore (A/D) ratio was obtained following the procedure reported in the literature with slight modification. In short, A/D is defined as the number of the acceptor fluorophore molecules to donor molecule in the interacting protein complex. Several concentration ratios of Alexa Fluor 488-LFA-1 and Alexa Fluor 555-D1-D2-Fc were incubated for 30 minutes at room temperature and the FRET emission spectra were obtained via a fluorescence multiplate reader, Tecan Infinite M200 pro (Männedorf, Switzerland). For each concentration ratio, the concentration of the acceptor conjugate, Alexa Fluor 555-D1-D2-Fc, was kept constant. The optimal A/D ratio for the FRET pair was selected by comparing the FRET efficiencies for different A/D ratios. […] Due to these facts, we have used equation (3), [65] given below for the FRET efficiency (E) calculation which incorporates the cross-talk corrections for each of the A/D ratios. [drawing 3] (3) here, (λ470, λ) denotes the numerical integral of the emission spectrum between 560 and 610 nm when excited with 470 nm. fDA, fA, and fD represent the emission spectra of the FRET mixture, acceptor alone, and donor alone, respectively. The absorbance values of donor and acceptor, at the excitation maximum of Alexa Fluor 488 of 470 nm, is represented by A^D and A^A, respectively. […] In this article, the calculation was implemented assuming that there […] in the overlap integral with different F/P and the (associated) different A/D ratios. The optimal A/D ratio was used for the development of the FRET based screening platform for the assessment of peptides and small molecules for their inhibition efficiency of the LFA-1 and ICAM-1 interactions.
The donor, Alexa Fluor 488-LFA-1, with a concentration corresponding to the […] A/D ratio was mixed with each kind of LFA-1 derived peptides (CD11a237–261, CD11a441–465, and CD11a456–465) in PBS, pH 7.4, 1 mM EGTA and 2 mM Mg^2+. […]

[2] = test system: I-domain of LFA-1 (CD11a I-domain); details: ref [58]; cited from earlier work
Excerpt: In our study, we identified three LFA-1 derived peptides, CD11a237–261, […], and CD11a456–465, to compare their inhibition efficiency via our steady-state FRET based competitive screening assay. Moreover, the inhibition efficiency of lovastatin, a well-known potent inhibitor of the ICAM-1 interaction, was also obtained to further validate the FRET screening platform. ...

[3] = test system: human immunodeficiency virus type 1; details: ref [59]; cited from earlier work
[4] = test system: interaction of ICAM-1 with LFA-1; set-up: method as in PMID 12368073; details: ref [34]; cited from earlier work
Excerpt: Based on these roles in several disease pathologies, the LFA-1/ICAM-1 interaction can serve as a potential therapeutic target in the development of new therapies for the autoimmune diseases, metastasis cancer, and viral diseases. […] Furthermore, several […] therapies were developed for the treatment of autoimmune diseases. However, […] therapies have serious side effects in humans due to their large molecular structure an ...

| Compound | inhibition efficiency ([1]; 0.2 µM inhibitor) [%] | FRET efficiency ([1]; 0.2 µM inhibitor) [%] | inhibition efficiency ([1]; 2 µM inhibitor) [%] | FRET efficiency ([1]; 2 µM inhibitor) [%] | inhibition efficiency ([1]; 20 µM inhibitor) [%] | FRET efficiency ([1]; 20 µM inhibitor) [%] | inhibition efficiency ([1]; 200 µM inhibitor) [%] | FRET efficiency ([1]; 200 µM inhibitor) [%] | FRET efficiency ([1]; 200 µM inhibitor, listed as Lovastatin) [%] | binding to the I-domain of LFA-1 [2] | effect on HIV-1 replication [3] | inhibition of the interaction of ICAM-1 with LFA-1 [4] | inhibition efficiency ([1]; 0.02 µM inhibitor) [%] | FRET efficiency ([1]; 0.02 µM inhibitor) [%] | rank of inhibition efficiency among the three LFA-1 derived peptides [1] |
| --- | --- | --- | --- | --- | --- | --- | --- | --- | --- | --- | --- | --- | --- | --- | --- |
| CC[C@H](C)C(=O)O[C@H]1C[C@@H](C)C=C2C=C[C@H](C)[C@H](CC[C@@H]3C[C@@H](O)CC(=O)O3)[C@H]21 [lovastatin, reference compound] | 69.48±0.77 | 16.33 ± 0.76 | 73.84±0.56 | 14.00 ± 0.57 | 84.98±0.10 | 8.03 ± 0.01 | 90.03±0.06 | 5.3 | 5.33 ± 0.01 | binds with the highly conserved I-domain of LFA-1 | reduction of human immunodeficiency virus type 1 replication | specifically inhibits the interaction of ICAM-1 with LFA-1 |  |  |  |
| APLFY- GEQRG [CD11a456–465, LFA-1α derived peptide, purchased from GenScript] | 20.26±0.69 | 42.67 ± 0.57 | 36.46±0.42 | 34.00 ± 0.08 | 51.41±0.33 | 26.00 ± 0.58 |  |  |  |  |  |  | 12.17±0.91 | 47.00 ± 0.81 | the lowest |
| GVDVDQDGETEL-IGAPLFYGEQRG [CD11a441–465, LFA-1α derived peptide, purchased from GenScript] | 37.08±0.29 | 33.67 ± 0.51 | 46.93±0.89 | 28.40 ± 0.02 | 62.01±0.15 | 20.33 ± 0.53 |  |  |  |  |  |  | 20.89±0.72 | 42.33 ± 0.23 |  |
| ITDGEATDSGNIDAAKDIIR-YIIGI [CD11a237–261, LFA-1α derived peptide, purchased from GenScript] | 47.05±0.56 | 28.33 ± 0.51 | 53.16±0.70 | 25.06 ± 0.66 | 65.13±0.81 | 18.66 ± 0.06 |  |  |  |  |  |  | 40.81±0.31 | 31.67 ± 0.06 | highest inhibition efficiency |

— publication PMC4102529, “FRET Based Quantification and Screening Technology Platform for the Interactions of Leukocyte Function-Associated Antigen-1 (LFA-1) with InterCellular Adhesion Molecule-1 (ICAM-1)” (PLoS ONE, 2014)
